For 33 compounds, IC50 and EC50 results are on record in patent US11091428B2 (HAPLOGEN GMBH, priority 2016, dated 2021).

Where two headings read alike, the source gives them in different places. Where only a bound is given, the exact number is not on record here.

One experiment addresses T1, PLA2G16 (Homo sapiens, UniProt P53816).
T1 construct: Hexa-His (N); made in house; host or cells: E. coli BL21(DE3)
T1 sequence (P53816 1-162): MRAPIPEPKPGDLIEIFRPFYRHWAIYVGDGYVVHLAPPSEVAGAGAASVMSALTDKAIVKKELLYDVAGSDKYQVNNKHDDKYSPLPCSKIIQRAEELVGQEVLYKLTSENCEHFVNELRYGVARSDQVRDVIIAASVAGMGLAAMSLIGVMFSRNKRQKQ
The experiment in a line: Enzyme activity assay for PLA2G16 (Red/Green BODIPY PC-A2 fluorescence). The class given is biochemical. To be noted: His-tagged PLA2G16, 4 min pre-incubation, 2 nM to 50 μM; read-out: IC50 values of the compounds determined in the enzyme activity assay for PLA2G16. The method in brief: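 N-His-tagged human PLA2G16 from E. coli, Ni-NTA purified. Pre-incubated 4 min with compound (2 nM–50 μM final) in pH 8.5 Tris/NaCl buffer with 5 mM glutathione, then BODIPY PC-A2 in DOPC/DOPG/cholesterol vesicles added. Fluorescence (ex 480/em 530 nm) increase over 10 min taken as activity; IC50 by non-linear regression.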

In experiment [1] the test system is picornaviruses (CVB1, HRV-A2, HRV-A23, EV-68). As to the kind of experiment: Anti-picornavirus cytopathic effect (CPE) reduction assay on HeLa H1 cells. The class given is cell-based. To be noted: Enterovirus B, HeLa H1 cells, 48 h, category from averaging the EC50 values from four picornaviruses (CVB1, HRV-A2, HRV-A23, EV68), read-out: EC50 values of the compounds determined in the anti-picornavirus assay. The method in brief: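 HeLa H1 cells pre-treated 2 h with serially diluted compound in DMEM/2% FBS, then infected at an MOI giving full CPE in 2 days. After 48 h at 37° C, viability read by CellTiterBlue fluorescence (ex 560/em 590 nm), normalised to infected and uninfected vehicle controls; EC50 by non-linear regression, category from mean of four viruses.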
(In general: Damage to the host cells serves as the signal in cytopathic effect assays.)

Where [2] appears, read: CVB1|EV68|HRVA2|HRVA23, HeLa H1, 48 h.

In the case of `CC(C(=O)C(=O)NCCC1CCOCC1)N(C=O)C1CCCCC1` (stereo not drawn) [FP 112, 3-(N-Cyclohexylformamido)-N-[2-(oxan-4-yl)ethyl]-2-oxobutanamide], on PLA2G16, the IC50 (as a rule, the concentration needed to halve the response being measured) was less than 1000 nM. Further, the EC50 – broadly, the concentration at which the effect is half-maximal – in experiment [1] (HeLa H1, 48 h) was 1000 to 10000 nM.
As for `Cc1csc(CN2C(=O)CCC2C(=O)C(=O)NCC2CCCC2)n1` (stereo not drawn), the IC50 on PLA2G16 is less than 1000 nM. Besides, the EC50 in experiment [1] (setting [2]) is less than 1000 nM.
Turning to `CCNC(=O)C(=O)C1N(Cc2ccccc2)C(=O)CC12CC2` (stereo not drawn) [FP 348, 2-{5-Benzyl-6-oxo-5-azaspiro[2.4]heptan-4-yl}-N-ethyl-2-oxoacetamide], the IC50 on PLA2G16 is less than 1000 nM. Besides, the EC50 in experiment [1] (HeLa H1, 48 h) was less than 1000 nM.
As to `CC(C)C(=O)N1CCC(CN(C=O)C(C)C(=O)C(=O)NCC2CCCCC2)CC1` (stereo not drawn) [FP 78, N-(Cyclohexylmethyl)-3-(AN{[1-(2-methylpropanoyl)piperidin-4-yl]methyl}formamido)-2-oxobutanamide], the 50% inhibitory concentration (IC50) on PLA2G16 was 1000 to 10000 nM. The concentration giving a half-maximal response (EC50) in experiment [1] (HeLa H1, 48 h) is more than 10000 nM.
In the same order, the values of `CCC(C(=O)C(=O)NCC1CCCCC1)N(C=O)CC1CN(C(=O)OC(C)(C)C)C1` (stereo not drawn) [FP 61, tert-Butyl 3-[(NM{1-[(cyclohexylmethyl)carbamoyl]-1-oxobutan-2-yl}formamido)methyl]-azetidine-1-carboxylate] are less than 1000 nM and 1000 to 10000 nM.
In the same order, the values of `O=C(NC1CC1)C(=O)C1CCC(=O)N1Cc1ccc(F)cc1` (stereo not drawn) [FP 242, N-Cyclopropyl-2-{1-[(4-fluorophenyl)methyl]-5-oxopyrrolidin-2-yl}-2-oxoacetamide] are less than 1000 nM and 1000 to 10000 nM.
`CC(C)C(NC(=O)c1ccccc1)C(=O)C(=O)NCC1CC1` (stereo not drawn) [FP 165, N-(Cyclopropylmethyl)-4-methyl-2-oxo-3-(phenylformamido)pentanamide]: on PLA2G16, the IC50 was less than 1000 nM. Also, in experiment [1] (HeLa H1, 48 h), the EC50 is more than 10000 nM.
In the same order, the values of `CC(C(=O)C(=O)NCC(F)(F)F)N(C=O)C1CCCCC1` (stereo not drawn) [FP 110, 3-(N-Cyclohexylformamido)-2-oxo-N-(2,2,2-trifluoroethyl)butanamide] are less than 1000 nM and 1000 to 10000 nM.
Consider `CC(=O)NCCCCCCNC(=O)C(=O)C1CCC(=O)N1Cc1ccccc1` (stereo not drawn) [FP 328, 2-(1-Benzyl-5-oxopyrrolidin-2-yl)-N-(6-acetamidohexyl)-2-oxoacetamide], for which the IC50 on PLA2G16 was less than 1000 nM. Also, the EC50 in experiment [1] (HeLa H1, 48 h) fell in the range of 1000 to 10000 nM.
On to `C[C@@H]1CC(=O)N(Cc2ccccc2)[C@H]1C(=O)C(=O)NCC1CC1` (single isomer, unassigned) [FP 336], for which, on PLA2G16, the IC50 was less than 1000 nM. In experiment [1] (HeLa H1, 48 h), the EC50 is less than 1000 nM.
As to `Cc1csc(CN2C(=O)CCC2C(=O)C(=O)NCC2CC2)n1` (stereo not drawn), the IC50 on PLA2G16 was less than 1000 nM. For the same compound, the EC50 in experiment [1] (setting [2]) lay within 1000 to 10000 nM.
Consider `Cc1cccc(CN2C(=O)CCC2C(=O)C(=O)NC2CC2)c1` (stereo not drawn) [FP 269, N-Cyclopropyl-2-{1-[(3-methylphenyl)methyl]-5-oxopyrrolidin-2-yl}-2-oxoacetamide], for which the IC50 on PLA2G16 was less than 1000 nM. Further, the EC50 in experiment [1] (HeLa H1, 48 h) fell in the range of 1000 to 10000 nM.
In the case of `C[C@@H]1CC(=O)N(Cc2ccccc2)[C@H]1C(=O)C(=O)NC1CC1` (single isomer, unassigned) [FP 340], the IC50 at PLA2G16 is less than 1000 nM. The EC50 in experiment [1] (HeLa H1, 48 h) was less than 1000 nM.
With `CC(C)C(=O)N(C)C(C)C(=O)C(=O)NCC1CC1` (stereo not drawn) [FP 151, N-(Cyclopropylmethyl)-3-(N,2-dimethylpropanamido)-2-oxobutanamide], the IC50 on PLA2G16 was 1000 to 10000 nM. For the same compound, the EC50 in experiment [1] (HeLa H1, 48 h) was more than 10000 nM.
In the same order, the values of `CC(NS(=O)(=O)c1ccc(Cl)cc1)C(=O)C(=O)NCC1CC1` (stereo not drawn) [FP 215, 3-(4-Chlorobenzenesulfonamido)-N-(cyclopropylmethyl)-2-oxobutanamide] are less than 1000 nM and 1000 to 10000 nM.
In the same order, the values of `CC(NC(=O)C1CCCCC1)C(=O)C(=O)NCC1CC1` (stereo not drawn) [FP 161, 3-(Cyclohexylformamido)-N-(cyclopropylmethyl)-2-oxobutanamide] are less than 1000 nM and more than 10000 nM.
In the same order, the values of `CC(C(=O)C(=O)NCC1CC1)N(C=O)CC(C)(C)C` (stereo not drawn) [FP 41, N-(Cyclopropylmethyl)-3-[N-(2,2-dimethylpropyl)formamido]-2-oxobutanamide] are less than 1000 nM and 1000 to 10000 nM.
Consider `COc1ccccc1N(C=O)C(C)C(=O)C(=O)NCC1CC1` (stereo not drawn) [FP 105, N-(Cyclopropylmethyl)-3-[N-(2-methoxyphenyl)formamido]-2-oxobutanamide], for which, on PLA2G16, the IC50 is less than 1000 nM. Moreover, in experiment [1] (HeLa H1, 48 h), the EC50 was in the range of 1000 to 10000 nM.
With `Cc1cc(CNC(=O)C(=O)[C@H]2CCC(=O)N2Cc2ccccc2)no1` [FP 289, 2-[(2R)-1-Benzyl-5-oxopyrrolidin-2-yl]-N-[(5-methyl-1,2-oxazol-3-yl)methyl]-2-oxoacetamide], at PLA2G16, the IC50 was less than 1000 nM. The EC50 in experiment [1] (HeLa H1, 48 h) is less than 1000 nM.
On to `COCCCN(C=O)C(CC(C)C)C(=O)C(=O)NCC1CC1` (stereo not drawn) [FP 72, N-(Cyclopropylmethyl)-3-[N-(3-methoxypropyl)formamido]-5-methyl-2-oxohexanamide], for which the IC50 on PLA2G16 is less than 1000 nM. The EC50 in experiment [1] (HeLa H1, 48 h) lay in the range of 1000 to 10000 nM.
In the same order, the values of `O=CN(Cc1ccccc1)C(C(=O)C(=O)NCC1CC1)C1CC1` (stereo not drawn) [FP 67, 3-(N-Benzylformamido)-3-cyclopropyl-N-(cyclopropylmethyl)-2-oxopropanamide] are less than 1000 nM and less than 1000 nM.
The like results for `CC(C)CN(C=O)C(C(=O)C(=O)NCC1CC1)C(C)C` (stereo not drawn) [FP 30, N-(Cyclopropylmethyl)-4-methyl-3-[N-(2-methylpropyl)formamido]-2-oxopentanamide] were, in that order, less than 1000 nM and 1000 to 10000 nM.
In the same order, the values of `CC(OC1CCCCC1)C(=O)C(=O)NCC1CCCC1` (stereo not drawn) [FP 127, 3-(Cyclohexyloxy)-N-(cyclopentylmethyl)-2-oxobutanamide] are less than 1000 nM and less than 1000 nM.
Take `CCC(C(=O)C(=O)NCc1cccc(Cl)c1)N(C=O)c1ccccc1OC` (stereo not drawn) [FP 12, N-[(3-Chlorophenyl)methyl]-3-[N-(2-methoxyphenyl)formamido]-2-oxopentanamide]: the IC50 at PLA2G16 was less than 1000 nM. Also, the EC50 in experiment [1] (HeLa H1, 48 h) fell in the range of 1000 to 10000 nM.
The like results for `CC(NC(=O)C1CCC(F)(F)CC1)C(=O)C(=O)NCC1CC1` (stereo not drawn) [FP 173, N-(Cyclopropylmethyl)-3-[(4,4-difluorocyclohexyl)formamido]-2-oxobutanamide] were, in that order, 1000 to 10000 nM and more than 10000 nM.
The like results for `CC(C)C(C(=O)C(=O)NCC1CC1)N(C=O)CC(C)(C)C` (stereo not drawn) [FP 31, N-(Cyclopropylmethyl)-3-[N-(2,2-dimethylpropyl)formamido]-4-methyl-2-oxopentanamide] were, in that order, less than 1000 nM and 1000 to 10000 nM.
The like results for `CC(OCC1CCOCC1)C(=O)C(=O)NCC1CCC1` (stereo not drawn) [FP 131, N-(Cyclobutylmethyl)-3-[(oxan-4-yl)methoxy]-2-oxobutanamide] were, in that order, less than 1000 nM and less than 1000 nM.
Turning to `CC(C(=O)C(=O)NCC1CCC1)N(C=O)Cc1ccccc1` (stereo not drawn) [FP 201, 3-(N-Benzylformamido)-N-(cyclobutylmethyl)-2-oxobutanamide], at PLA2G16, the IC50 is less than 1000 nM. Also, the EC50 in experiment [1] (HeLa H1, 48 h) is less than 1000 nM.
As to `O=CN(Cc1ccccc1)[C@@H](Cc1cn(C(c2ccccc2)(c2ccccc2)c2ccccc2)cn1)C(=O)C(=O)NCC1CC1` [FP 117, (3S)-3-(N-Benzylformamido)-N-(cyclopropylmethyl)-2-oxo-4-[1-(triphenylmethyl)-1H-imidazol-4-yl]butanamide], the IC50 at PLA2G16 is less than 1000 nM. Further, in experiment [1] (HeLa H1, 48 h), the concentration for a half-maximal effect (EC50) was less than 1000 nM.
For `CC(C)C(=O)N(C)C(C)C(=O)C(=O)NCC1CCCCC1` (stereo not drawn) [FP 144, N-(Cyclohexylmethyl)-3-(N,2-dimethylpropanamido)-2-oxobutanamide], on PLA2G16, the 50% inhibitory concentration (IC50) was less than 1000 nM. Also, the half-maximal effective concentration (EC50) in experiment [1] (HeLa H1, 48 h) lay in the range of 1000 to 10000 nM.
The like results for `O=C(NC1CC1)C(=O)C1CCC(=O)N1CCc1ccccc1` (stereo not drawn) [FP 251, N-Cyclopropyl-2-oxo-2-[5-oxo-1-(2-phenylethyl)pyrrolidin-2-yl]acetamide] were, in that order, less than 1000 nM and 1000 to 10000 nM.
As to `CCNC(=O)C(=O)C1CCC(=O)N1Cc1ccc(C)s1` (stereo not drawn) [FP 278, N-Ethyl-2-{1-[(5-methylthiophen-2-yl)methyl]-5-oxopyrrolidin-2-yl}-2-oxoacetamide], the half-inhibitory concentration (IC50) at PLA2G16 is less than 1000 nM. The EC50 in experiment [1] (HeLa H1, 48 h) was 1000 to 10000 nM.
Regarding `COc1ccccc1N(C=O)C(C)C(=O)C(=O)NCc1c(C)cccc1C` (stereo not drawn) [FP 99, N-[(2,6-Dimethylphenyl)methyl]-3-[N-(2-methoxyphenyl)formamido]-2-oxobutanamide], the IC50 on PLA2G16 is less than 1000 nM. For the same compound, in experiment [1] (HeLa H1, 48 h), the EC50 lay in the range of 1000 to 10000 nM.
